Reference: patent US9067977B2, “Peptides derivatized with A-B-C-D- and their therapeutical use” (Novo Nordisk A/S, priority 2007, dated 2015)
Starred links: 1 amine or outer side, 2 acyl side, 3 side chain; linkers in the order of their positions; H or OH if unused. Non-standard residues stand in square brackets, D forms with d. Residues, ends and D or L forms follow the SMILES beside them. Groups on a side chain read outwards from the residue. *: point of attachment. X1 = O=C(CCCCCCCCCCCCCCCc1nnn[nH]1)NS(=O)(=O)CCCC(=O)*; PEG12 = NCCOCCOCCOCCOCCOCCOCCOCCOCCOCCOCCOCCOCCC(=O)O; C20 diacid = O=C(O)CCCCCCCCCCCCCCCCCCC(=O)*; γGlu = O=C(O)[C@H](CCC(=O)[*:2])N[*:1]; Desaminohistidyl = O=C(CCc1c[nH]cn1)*; Aib = CC(C)(N)C(=O)O; Inp = O=C(O)C1CCNCC1; GABA = NCCCC(=O)O

Molecular target: human serum albumin (HSA) (Homo sapiens, UniProt P02768)
Sequence (P02768 25-609): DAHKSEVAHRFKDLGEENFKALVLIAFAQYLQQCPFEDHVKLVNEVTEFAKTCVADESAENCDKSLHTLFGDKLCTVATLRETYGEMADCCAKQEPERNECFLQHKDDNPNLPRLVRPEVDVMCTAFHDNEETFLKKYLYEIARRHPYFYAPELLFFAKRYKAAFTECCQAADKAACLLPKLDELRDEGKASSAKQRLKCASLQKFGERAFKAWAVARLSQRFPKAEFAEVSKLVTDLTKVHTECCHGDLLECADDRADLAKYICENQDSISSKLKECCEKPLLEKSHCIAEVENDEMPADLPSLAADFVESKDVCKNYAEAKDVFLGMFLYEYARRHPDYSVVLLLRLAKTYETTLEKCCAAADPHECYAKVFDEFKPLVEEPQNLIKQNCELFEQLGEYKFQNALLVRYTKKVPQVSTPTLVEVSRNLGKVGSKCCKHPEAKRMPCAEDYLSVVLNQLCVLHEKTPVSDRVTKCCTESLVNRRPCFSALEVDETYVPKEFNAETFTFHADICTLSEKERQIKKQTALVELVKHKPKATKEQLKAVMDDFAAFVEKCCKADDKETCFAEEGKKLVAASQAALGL
Assay: Albumin binding affinity, competition scintillation proximity assay
Protocol: Streptavidin-SPA beads (GE Healthcare RPNQ0009) were incubated with biotinylated HSA for 5 hours. The beads were washed with buffer to remove unbound HSA. […] After 20 hours of gentle rocking at room temperature the plates were centrifuged and counted on a TopCounter.

EC50 [µM] | EC50 at 20 h (human, biotinylated human serum albumin on streptavidin-SPA beads, pH 7.4) [µM] | Structure (SMILES)
0.3 to 0.8 |  | CC[C@H](C)[C@H](NC(=O)[C@H](Cc1ccccc1)NC(=O)[C@H](CCC(=O)O)NC(=O)[C@H](CCCNC(=N)N)NC(=O)[C@H](C)NC(=O)[C@H](C)NC(=O)[C@H](CCC(N)=O)NC(=O)[C@H](CCC(=O)O)NC(=O)[C@H](CCC(=O)O)NC(=O)[C@H](CC(C)C)NC(=O)[C@H](Cc1ccc(O)cc1)NC(=O)[C@H](CO)NC(=O)[C@H](CO)NC(=O)[C@@H](NC(=O)[C@H](CC(=O)O)NC(=O)[C@H](CO)NC(=O)[C@@H](NC(=O)[C@H](Cc1ccccc1)NC(=O)[C@@H](NC(=O)CNC(=O)[C@H](CCC(=O)O)NC(=O)[C@H](C)NC(=O)CCc1c[nH]cn1)[C@@H](C)O)[C@@H](C)O)C(C)C)C(=O)N[C@@H](C)C(=O)N[C@@H](Cc1c[nH]c2ccccc12)C(=O)N[C@@H](CC(C)C)C(=O)N[C@H](C(=O)N[C@@H](CCCNC(=N)N)C(=O)NCC(=O)N[C@@H](CCCNC(=N)N)C(=O)NCC(=O)N[C@@H](CCCCNC(=O)CC[C@H](NC(=O)C1CCN(C(=O)CCCCCCCCCCCCCCCCCCC(=O)O)CC1)C(=O)O)C(=O)O)C(C)C [Example 62, [DesaminoHis7,Glu22,Arg26,34]-GLP-1 (7-37)-Lys-((S)-4-Carboxy-4-{[1-(19-carboxy-nonadecanoyl)-piperidine-4-carbonyl]-amino}-butyryl) peptide] (Desaminohistidyl-AEGTFTSDVSSYLEEQAAREFIAWLVRGRGK([γGlu-Inp-C20 diacid])-OH)
0.3 to 0.8 |  | CC[C@H](C)[C@H](NC(=O)[C@H](Cc1ccccc1)NC(=O)[C@H](CCC(=O)O)NC(=O)[C@H](CCCNC(=N)N)NC(=O)[C@H](C)NC(=O)[C@H](C)NC(=O)[C@H](CCC(N)=O)NC(=O)[C@H](CCC(=O)O)NC(=O)[C@H](CCC(=O)O)NC(=O)[C@H](CC(C)C)NC(=O)[C@H](Cc1ccc(O)cc1)NC(=O)[C@H](CO)NC(=O)[C@H](CO)NC(=O)[C@@H](NC(=O)[C@H](CC(=O)O)NC(=O)[C@H](CO)NC(=O)[C@@H](NC(=O)[C@H](Cc1ccccc1)NC(=O)[C@@H](NC(=O)CNC(=O)[C@H](CCC(=O)O)NC(=O)C(C)(C)NC(=O)[C@@H](N)Cc1c[nH]cn1)[C@@H](C)O)[C@@H](C)O)C(C)C)C(=O)N[C@@H](CCC(=O)O)C(=O)N[C@@H](Cc1c[nH]c2ccccc12)C(=O)N[C@@H](CC(C)C)C(=O)N[C@H](C(=O)N[C@@H](CCCCN)C(=O)NCC(=O)N[C@@H](CCCNC(=N)N)C(=O)N1CCC[C@H]1C(=O)N[C@@H](CCCCNC(=O)CCOCCOCCOCCOCCOCCOCCOCCOCCOCCOCCOCCOCCNC(=O)CC[C@H](NC(=O)CC[C@H](NC(=O)CCCNC(=O)CCCS(=O)(=O)NC(=O)CCCCCCCCCCCCCCCc1nnn[nH]1)C(=O)O)C(=O)O)C(=O)O)C(C)C [Example 52] (H-H[Aib]EGTFTSDVSSYLEEQAAREFIEWLVKGRPK([PEG12-γGlu-γGlu-GABA-X1])-OH)
 | 0.001 to 0.1 | CC[C@H](C)[C@H](NC(=O)[C@H](Cc1ccccc1)NC(=O)[C@H](CCC(=O)O)NC(=O)[C@H](CCCCNC(=O)COCCOCCNC(=O)CC[C@H](NC(=O)CC[C@H](NC(=O)CCCCCCCCCCCNC(=O)CCCS(=O)(=O)NC(=O)CCCCCCCCCCCCCCCc1nnn[nH]1)C(=O)O)C(=O)O)NC(=O)[C@H](C)NC(=O)[C@H](C)NC(=O)[C@H](CCC(N)=O)NC(=O)CNC(=O)[C@H](CCC(=O)O)NC(=O)[C@H](CC(C)C)NC(=O)[C@H](Cc1ccc(O)cc1)NC(=O)[C@H](CO)NC(=O)[C@H](CO)NC(=O)[C@@H](NC(=O)[C@H](CC(=O)O)NC(=O)[C@H](CO)NC(=O)[C@@H](NC(=O)[C@H](Cc1ccccc1)NC(=O)[C@@H](NC(=O)CNC(=O)[C@H](CCC(=O)O)NC(=O)C(C)(C)NC(=O)[C@@H](N)Cc1c[nH]cn1)[C@@H](C)O)[C@@H](C)O)C(C)C)C(=O)N[C@@H](C)C(=O)N[C@@H](Cc1c[nH]c2ccccc12)C(=O)N[C@@H](CC(C)C)C(=O)N[C@H](C(=O)N[C@@H](CCCNC(=N)N)C(=O)O)C(C)C [Example 37, N-epsilon26-[2-(2-{2-[(S)-4-Carboxy-4-((S)-4-carboxy-4-{12-[4-(16-(1H-tetrazol-5-yl)hexadecanoylsulfamoyl)butyrylamino]-dodecanoylamino}butyrylamino)butyrylamino]ethoxy}ethoxy)acetyl][Aib8,Arg34]GLP-1-(7-34)]
